The text below walks through data of patent publication US4495196A, “Antiinflammatory 4,5-diaryl-α-polyfluoroalkyl-1H-pyrrole-2-methanols and method for use thereof” (E. I. Du Pont de Nemours and Company, priority 1981, dated 1985).

For assay [1], the system named is adjuvant-induced arthritis in rats. Briefly: Established Adjuvant-Induced Arthritis in Rats. Format: in vivo, Lewis (Wistar) male rats. The note with it: for ED50: 504 h, read-out: Adjuvant Arthritis ED50.
Assay [2] concerns phenylquinone-induced writhing in mice. Put plainly: Phenylquinone Writhing Test. The note with it: mouse; oral; effective analgesic dose for 50% of the mice; observed 10 minutes from 30 minutes after dosing. The format is in vivo, female white mice. The procedure:
Phenylquinone Writhing Test
The phenylquinone writhing test, modified from Siegmund, et al., Proc. Soc. […] A test compound suspended in 1% methylcellulose was given orally to fasted (17-21 hours) female white mice, 5-20 animals per double blind test. Aqueous (0.01% phenyl-p-benzoquinone) phenylquinone was injected intraperitoneally at 24 minutes later using 0.20 ml per mouse.

Setting [3] is: rat, oral gavage once daily for 7 days (days 14-20), ED50% for decrease from control paw volume, estimated by inspection, day 21.
Where [4] appears, read: 168 h, rat, oral once daily for 7 days, read-out: percent reduction in paw volume at the indicated dose.

Structures are written as SMILES. Like-named read-outs stand apart in the source and are kept apart here.

In the case of `OC1(c2cc(-c3ccc(F)cc3)c(-c3ccc(F)cc3)[nH]2)C(F)(F)C(F)(F)C1(F)Cl` (centres unmarked) [Example 20], the results for the ED50 in assay [1] (setting [3]) and in assay [2] were 4.5 mg/kg and more than 108 mg/kg, respectively.

Take `OC(c1cc(-c2ccc(F)cc2)c(-c2ccc(F)cc2)[nH]1)C(F)(F)C(F)(F)F` (centres unmarked) [Example 37]: the ED50 is 2.9 mg/kg in assay [1] (setting [3]) and 103 mg/kg in assay [2].

As for `OC1(c2cc(-c3ccc(F)cc3)c(-c3ccc(F)cc3)[nH]2)C(F)(F)C(F)(F)C1(F)Br` (centres unmarked) [Example 21], the values for the ED50 in assay [1] (setting [3]) and in assay [2] were 20 mg/kg and more than 108 mg/kg, respectively.

Regarding `OC(c1cc(-c2ccc(F)cc2)c(-c2ccc(F)cc2)[nH]1)(C(F)(F)Cl)C(F)(F)Cl` [Example 17], the results for the ED50 in assay [1] (setting [3]) and in assay [2] were 6.5 mg/kg and more than 108 mg/kg, respectively.

Turning to `OC(c1cc(-c2ccc(F)cc2)c(-c2ccc(F)cc2)[nH]1)C(F)(F)C(F)(F)C(F)(F)F` (centres unmarked) [Example 49], the ED50 was 7 mg/kg in assay [1] (Rattus norvegicus, po) and more than 108 mg/kg in assay [2].

With `Cc1ccc(-c2cc(C(O)(C(F)(F)F)C(F)(F)F)[nH]c2-c2ccc(C)cc2)cc1` [Example 9], the ED50 in assay [1] (setting [3]) was 8 mg/kg; in assay [2], more than 108 mg/kg.

For the molecule `CC(=O)OC(c1cc(-c2ccc(F)cc2)c(-c2ccc(F)cc2)n1C)(C(F)(F)F)C(F)(F)F` [Example 34, 4,5-Bis(4-fluorophenyl)-1-methyl-α,α-bis(trifluoromethyl)-1H-pyrrole-2-methanol, Acetate], the ED50 in assay [1] (setting [3]) was 2.5 mg/kg; in assay [2] it was more than 108 mg/kg.

For `COC(c1cc(-c2ccc(F)cc2)c(-c2ccc(F)cc2)n1C)(C(F)(F)F)C(F)(F)F` [Example 32, 2,3-Bis(4-fluorophenyl)-1-methyl-5-[2,2,2-trifluoro-1-methoxy-1-(trifluoromethyl)ethyl]-1H-pyrrole], the results for the ED50 in assay [1] (setting [3]) and in assay [2] were 5.5 mg/kg and more than 108 mg/kg, respectively.

For the molecule `COc1ccc(-c2cc(C(O)(C(F)(F)F)C(F)(F)F)[nH]c2-c2ccc(OC)cc2)cc1` [Example 8], the ED50 in assay [1] (setting [3]) is 4 mg/kg; in assay [2], 5.2 mg/kg.

With `CC(O)(c1cc(-c2ccc(F)cc2)c(-c2ccc(F)cc2)[nH]1)C(F)(F)F` (centres unmarked) [Example 50], in assay [1] (168 h, rat, oral once daily for 7 days, dose 9 mg/kg, read-out: percent reduction in paw volume at the indicated dose), the inhibition in vivo at 9 mg/kg was 47%. The molecule further had an ED50 in assay [2] of more than 108 mg/kg.

For `COC(=O)OC(c1cc(-c2ccc(F)cc2)c(-c2ccc(F)cc2)n1C)(C(F)(F)F)C(F)(F)F` [Example 36, 4,5-Bis(4-fluorophenyl)-1-methyl-α,α-bis(trifluoromethyl)-1H-pyrrole-2-methanol, Methylcarbonate], the inhibition in vivo at 25 mg/kg in assay [1] (setting [4]) is 46%. For the same molecule, the ED50 in assay [2] is more than 108 mg/kg.

On to `OC(c1cc(-c2ccc(F)cc2)c(-c2ccc(Br)cc2)[nH]1)(C(F)(F)F)C(F)(F)F` [Example 5], for which the ED50 is 6 mg/kg in assay [1] (setting [3]) and more than 135 mg/kg in assay [2].

For the molecule `Cn1c(C(O)(C(F)(F)F)C(F)(F)F)cc(-c2ccc(F)cc2)c1-c1ccc(F)cc1` [Example 28, 4,5-Bis(4-fluorophenyl)-1-methyl-α,α-bis(trifluoromethyl)-1H-pyrrole-2-methanol], the ED50 in assay [1] (setting [3]) was 0.66 mg/kg; in assay [2], 45 mg/kg.

Turning to `OC(c1cc(-c2ccc(F)cc2)c(-c2ccc(F)cc2)[nH]1)(C(F)(F)Cl)C(F)(Cl)Cl` (centres unmarked) [Example 22], the ED50 in assay [1] (Rattus norvegicus, po) was 7 mg/kg; in assay [2], more than 108 mg/kg.

On to `COc1ccc(-c2cc(C(O)C(F)(F)F)[nH]c2-c2ccc(OC)cc2)cc1` (stereo not drawn) [Example 30, 4,5-Bis(4-methoxyphenyl)-α-(trifluoromethyl)-1H-pyrrole-2-methanol], for which the ED50 in assay [1] (setting [3]) is 5.5 mg/kg; in assay [2], 13.4 mg/kg.

With `CC(O)(c1cc(-c2ccc(F)cc2)c(-c2ccc(F)cc2)[nH]1)C(F)(F)C(F)(F)F` (centres unmarked) [Example 38], the results for the ED50 in assay [1] (setting [3]) and in assay [2] were 3.1 mg/kg and more than 108 mg/kg, respectively.

Take `OC(c1cc(-c2ccc(F)cc2)c(-c2cccnc2)[nH]1)(C(F)(F)F)C(F)(F)F` [Example 11]: the inhibition in vivo at 15 mg/kg in assay [1] (168 h, rat, oral once daily for 7 days, dose 15 mg/kg, read-out: percent reduction in paw volume at the indicated dose) came to 47%. In addition, in assay [2], the ED50 was more than 108 mg/kg.

As for `CN(C)c1ccc(-c2[nH]c(C(O)(C(F)(F)F)C(F)(F)F)cc2-c2ccc(F)cc2)cc1` [Example 10, 4-(4-fluorophenyl)-5-(4-dimethylaminophenyl)-α,α-bis(trifluoromethyl)-1H-pyrrole-2-methanol], the ED50 in assay [1] (setting [3]) was 2.2 mg/kg; in assay [2], more than 108 mg/kg.

On to `OC(c1cc(-c2ccccc2)c(-c2cccnc2)[nH]1)(C(F)(F)F)C(F)(F)F` [Example 7], for which, in assay [1] (168 h, rat, oral once daily for 7 days, dose 18 mg/kg, read-out: percent reduction in paw volume at the indicated dose), the inhibition in vivo at 18 mg/kg amounted to 31%. For the same molecule, the ED50 in assay [2] was 78 mg/kg.

For `OC(c1cc(-c2ccc(F)cc2)c(-c2ccc(F)cc2)[nH]1)(C(F)(F)F)C(F)(F)Cl` (centres unmarked) [Example 19], the ED50 in assay [1] (setting [3]) is 2 mg/kg; in assay [2], more than 108 mg/kg.

With `OC(c1cc(-c2ccc(F)cc2)c(-c2ccc(F)cc2)[nH]1)(C(F)F)C(F)(F)F` (centres unmarked) [Example 18], the ED50 in assay [1] (setting [3]) was 4 mg/kg; in assay [2] it was more than 108 mg/kg.

Turning to `CSc1ccc(-c2[nH]c(C(O)(C(F)(F)F)C(F)(F)F)cc2-c2ccc(F)cc2)cc1` [Example 12], the ED50 was 9 mg/kg in assay [1] (setting [3]) and more than 108 mg/kg in assay [2].

`OC1(c2cc(-c3ccc(F)cc3)c(-c3ccc(F)cc3)[nH]2)C(F)(F)C(F)(F)C1(F)F` [Example 16]: the ED50 in assay [1] (Rattus norvegicus, po) was 1.3 mg/kg; in assay [2], more than 108 mg/kg.

In the case of `Cn1c(C(OC(=O)c2ccccc2)(C(F)(F)F)C(F)(F)F)cc(-c2ccc(F)cc2)c1-c1ccc(F)cc1` [Example 35, 4,5-Bis(4-fluorophenyl)-1-methyl-α,α-bis(trifluoromethyl)-1H-pyrrole-2-methanol, Benzoate], the inhibition in vivo at 27 mg/kg in assay [1] (setting [4]) turned out to be 22%. Further, the ED50 in assay [2] is more than 108 mg/kg.

In the case of `OC(c1cc(-c2ccccc2)c(-c2ccc(Cl)c(Cl)c2)[nH]1)(C(F)(F)F)C(F)(F)F` [Example 4], the ED50 in assay [1] (setting [3]) is 70 mg/kg; in assay [2], more than 108 mg/kg.

For `OC(c1cc(-c2ccccc2)c(-c2ccccc2)[nH]1)(C(F)(F)F)C(F)(F)F` [Example 2], in assay [1] (168 h, rat, oral once daily for 7 days, dose 81 mg/kg, read-out: percent reduction in paw volume at the indicated dose), the inhibition in vivo at 81 mg/kg was determined as 42%. In assay [2], this molecule had an ED50 of 135 mg/kg.

In the case of `OC(c1cc(-c2ccc(F)cc2)c(-c2ccc(F)cc2)[nH]1)(C(F)(F)F)C(F)(F)F` [Example 3, 4,5-bis(4-fluorophenyl)-α,α-bis(trifluoromethyl)-1H-pyrrole-2-methanol], the figures for the ED50 in assay [1] (setting [3]) and in assay [2] were 3.5 mg/kg and more than 108 mg/kg, respectively.

Consider `OC(c1cc(-c2ccc(Cl)cc2)c(-c2ccc(Cl)cc2)[nH]1)(C(F)(F)F)C(F)(F)F` [Example 1, 4,5-Bis(4-chlorophenyl)-α,α-bis(trifluoromethyl)-1H-pyrrole-2-methanol], for which the ED50 in assay [1] (Rattus norvegicus, po) is 7 mg/kg; in assay [2] it was more than 108 mg/kg.

For the molecule `Fc1ccc(-c2cc(C(OCc3ccccc3)(C(F)(F)F)C(F)(F)F)[nH]c2-c2ccc(F)cc2)cc1` [Example 33, 2,3-Bis(4-fluorophenyl)-5-[2,2,2-trifluoro-1-(phenylmethoxy)-1-(trifluoromethyl)ethyl]-1H-pyrrole], the inhibition in vivo at 25 mg/kg in assay [1] (setting [4]) amounted to 35%.

Consider `Cc1c(C(O)(C(F)(F)F)C(F)(F)F)[nH]c(-c2ccc(F)cc2)c1-c1ccc(F)cc1` [Example 6], for which the ED50 was 2.8 mg/kg in assay [1] (setting [3]) and more than 135 mg/kg in assay [2].

Take `COc1ccc(-c2cc(C(C)(O)C(F)(F)F)[nH]c2-c2ccc(OC)cc2)cc1` (stereo not drawn) [Example 31, 4,5-Bis(4-methoxyphenyl)-α-methyl-α-(trifluoromethyl)-1H-pyrrole-2-methanol]: the ED50 is 1.25 mg/kg in assay [1] (setting [3]) and 23 mg/kg in assay [2].

In the case of `OC(c1cc(-c2ccc(F)cc2)c(-c2ccc(F)cc2)[nH]1)C(F)(F)F` (stereo not drawn) [Example 29, 4,5-Bis(4-fluorophenyl)-α-(trifluoromethyl)-1H-pyrrole-2-methanol], the ED50 was 11 mg/kg in assay [1] (setting [3]) and more than 108 mg/kg in assay [2].

`CS(=O)(=O)c1ccc(-c2[nH]c(C(O)(C(F)(F)F)C(F)(F)F)cc2-c2ccc(F)cc2)cc1` [Example 13]: the inhibition in vivo at 27 mg/kg in assay [1] (setting [4]) is 22%. The molecule further yielded an ED50 in assay [2] of more than 108 mg/kg.
